# Data as given in patent publication US20250026759A1 (Merck Sharp & Dohme LLC, priority 2023, published 2025).
# Tested on: PBMCs infected with VSV-G pseudotyped HIV virus (VSV-G/pNLG1-P2A-ΔEnv)
# Assay: cells
# Assay type: cell-based, human
# Details: Homo sapiens, PBMC, read-out: TACK EC50
row,SMILES,EC50
1,"O=C1Nc2cc(Cn3cc4ccncc4n3)c(F)cc2[C@@](C#CC2CC2)(C(F)(F)F)N1 (single isomer, unassigned) [Example 26]",13.6 nM
2,"CC(F)(F)[C@@]1(C#CC2CC2)NC(=O)Nc2cc(Cn3cnc(C(N)=O)n3)c(F)cc21 (single isomer, unassigned) [Example 113]",51.2 nM
3,"CC(F)(F)[C@@]1(C#CC2CC2)NC(=O)Nc2cc(Cn3cnc(CO)n3)c(F)cc21 [Example 4, (S)-4-(cyclopropylethynyl)-4-(1,1-difluoroethyl)-6-fluoro-7-((3-(hydroxymethyl)-1H-1,2,4-triazol-1-yl)methyl)-3,4-dihydroquinazolin-2(1H)-one]",67.7 nM
4,"CC(F)(F)[C@@]1(C#CC2CC2)NC(=O)Nc2cc(Cn3ccnc3CO)c(F)cc21 [Example 49, (S)-4-(cyclopropylethynyl)-4-(1,1-difluoroethyl)-6-fluoro-7-((2-(hydroxymethyl)-1H-imidazol-1-yl)methyl)-3,4-dihydroquinazolin-2(1H)-one]",41.8 nM
5,"O=C1Nc2cc(Cn3ncc4ccncc43)c(F)cc2[C@@](C#CC2CC2)(C(F)(F)F)N1 (single isomer, unassigned) [Example 25]",59.9 nM
6,"COCc1ncn(Cc2cc3c(cc2F)[C@@](C#CC2CC2)(C(C)(F)F)NC(=O)N3)n1 [Example 65, (S)-4-(cyclopropylethynyl)-4-(1,1-difluoroethyl)-6-fluoro-7-((3-(methoxymethyl)-1H-1,2,4-triazol-1-yl)methyl)-3,4-dihydroquinazolin-2(1H)-one]",38.1 nM
7,"CC(F)(F)[C@@]1(C#CC2CC2)NC(=O)Nc2cc(Cn3ccc(OC(F)F)n3)c(F)cc21 [Example 63, (S)-4-(cyclopropylethynyl)-4-(1,1-difluoroethyl)-7-((3-(difluoromethoxy)-1H-pyrazol-1-yl)methyl)-6-fluoro-3,4-dihydroquinazolin-2(1H)-one]",33.5 nM
8,"O=C1Nc2cc(Cn3nccc3CO)c(F)cc2[C@@](C#CC2CC2)(C(F)(F)F)N1 (single isomer, unassigned) [Example 5]",109 nM
9,"Cc1n[nH]c(=O)n1Cc1cc2c(cc1F)[C@@](C#CC1CC1)(C(C)(F)F)NC(=O)N2 [Example 38, (S)-4-(cyclopropylethynyl)-4-(1,1-difluoroethyl)-6-fluoro-7-((3-methyl-5-oxo-1,5-dihydro-4H-1,2,4-triazol-4-yl)methyl)-3,4-dihydroquinazolin-2(1H)-one]",23 nM
10,"COCc1nn(Cc2cc3c(cc2F)[C@@](C#CC2CC2)(C(C)(F)F)NC(=O)N3)cc1Cl [Example 66, (S)-7-((4-chloro-3-(methoxymethyl)-1H-pyrazol-1-yl)methyl)-4-(cyclopropylethynyl)-4-(1,1-difluoroethyl)-6-fluoro-3,4-dihydroquinazolin-2(1H)-one]",38.9 nM
11,"O=C1Nc2cc(Cn3ncc4c3CCOC4)c(F)cc2[C@@](C#CC2CC2)(C(F)(F)F)N1 (single isomer, unassigned) [Example 22]",60.5 nM
12,"CC(F)(F)[C@@]1(C#CC2CC2)NC(=O)Nc2cc(Cn3ccc(C#N)n3)c(F)cc21 [Example 17, (S)-1-((4-(cyclopropylethynyl)-4-(1,1-difluoroethyl)-6-fluoro-2-oxo-1,2,3,4-tetrahydroquinazolin-7-yl)methyl)-1H-pyrazole-3-carbonitrile]",46.3 nM
13,"CC(F)(F)[C@@]1(C#CC2CC2)NC(=O)Nc2cc(Cn3ncc4ccccc43)c(F)cc21 [Example 91, (S)-7-((1H-indazol-1-yl)methyl)-4-(cyclopropylethynyl)-4-(1,1-difluoroethyl)-6-fluoro-3,4-dihydroquinazolin-2(1H)-one]",27.3 nM
14,"O=C1Nc2cc(Cn3cc4cncnc4n3)c(F)cc2[C@@](C#CC2CC2)(C(F)(F)F)N1 [Example 27, (S)-7-((2H-pyrazolo[3,4-d]pyrimidin-2-yl)methyl)-4-(cyclopropylethynyl)-6-fluoro-4-(trifluoromethyl)-3,4-dihydroquinazolin-2(1H)-one]",82.6 nM
